We go through six compounds from ChEMBL document CHEMBL4004854, “Pyrrolo[3',2':6,7]cyclohepta[1,2-b]pyridines with potent photo-antiproliferative activity” (Eur J Med Chem, 2017).

Data set [1] concerns MCF7. The data set is described as follows: Phototoxicity against human MCF7 cells assessed as reduction in cell viability preincubated for 30 mins followed by 1.25 J/cm2 UV light irradiation measured after 48 hrs by MTT assay. The following applies: MCF7, light or radiation study. Format: functional, cell-based.
The nature of data set [2]: Dark toxicity against human MCF7 cells assessed as reduction in cell viability after 72 hrs by MTT assay. In kind it is cell-based.
Data set [3] has as its system MCF7. The data set is described as follows: Phototoxic index, ratio of CC50 for human MCF7 cells under dark condition to EC50 for human MCF7 cells under UV light irradiated condition.
Data set [4] deals with Jurkat. The data set is described as follows: Phototoxicity against human Jurkat cells assessed as reduction in cell viability preincubated for 30 mins followed by 1.25 J/cm2 UV light irradiation measured after 48 hrs by MTT assay. The following applies: light or radiation study. Format: functional, cell-based.
The nature of data set [5]: Dark toxicity against human Jurkat cells assessed as reduction in cell viability after 72 hrs by MTT assay. Format: cell-based. Background: Tetrazolium assays rely on reduction of a dye to a coloured formazan, in cell work by metabolically active cells.
For data set [6], the system named is Jurkat. Kind of data set: Phototoxic index, ratio of CC50 for human Jurkat cells under dark condition to EC50 for human Jurkat cells under UV light irradiated condition.
Data set [7] concerns K562. Kind of data set: Phototoxicity against human K562 cells assessed as reduction in cell viability preincubated for 30 mins followed by 1.25 J/cm2 UV light irradiation measured after 48 hrs by MTT assay. In kind it is functional, cell-based. The following applies: K562, light or radiation study.
A short description of data set [8]: Dark toxicity against human K562 cells assessed as reduction in cell viability after 72 hrs by MTT assay. Format: cell-based.
For data set [9], the system named is K562. The data set is described as follows: Phototoxic index, ratio of CC50 for human K562 cells under dark condition to EC50 for human K562 cells under UV light irradiated condition.
For data set [10], the system named is Jurkat. Kind of data set: Phototoxicity against human Jurkat cells assessed as reduction in cell viability at 0.1 uM preincubated for 30 mins followed by 2.5 J/cm2 UV light irradiation measured after 72 hrs in presence of vitamin E by MTT assay. In kind it is functional, cell-based.
In data set [11] the test system is Jurkat. Kind of data set: Phototoxicity against human Jurkat cells assessed as reduction in cell viability at 0.1 uM preincubated for 30 mins followed by 2.5 J/cm2 UV light irradiation measured after 72 hrs in presence of singlet oxygen scavenger sodium azide by MTT assay. In kind it is functional, cell-based.
The test system of data set [12] is Jurkat. Kind of data set: Phototoxicity against human Jurkat cells assessed as reduction in cell viability at 0.1 uM preincubated for 30 mins followed by 2.5 J/cm2 UV light irradiation measured after 72 hrs in presence of antioxidant GSH by MTT assay. Format: functional, cell-based.
For data set [13], the system named is Jurkat. Kind of data set: Phototoxicity against human Jurkat cells assessed as reduction in cell viability at 0.1 uM preincubated for 30 mins followed by 2.5 J/cm2 UV light irradiation measured after 72 hrs in presence of hydroxyl radical scavenger DMTU by MTT assay. In kind it is functional, cell-based.
Data set [14] can be described thus: Solubility of the compound in aqueous acetonitrile solution. The following applies: buffer. Format: physicochemical.
The subject of data set [15] is Escherichia coli. Kind of data set: Induction of Escherichia coli pBR322 DNA single strand break assessed as open circular form DNA bands at 10 to 40 uM upon 7.5 J/cm2 UV-A light irradiation by ethidium bromide staining based UV transillumination assay.
The subject of data set [16] is MCF7. The data set is described as follows: Induction of apoptosis in human MCF7 cells assessed as caspase-3 activation at 0.5 uM upon 2.5 J/cm2 UV light irradiation measured after 24 hrs by Western blot method. In kind it is functional, cell-based. For orientation: A western blot detects proteins with antibodies after separation by electrophoresis.
Data set [17] deals with Escherichia coli. Kind of data set: Induction of Escherichia coli pBR322 DNA double strand break assessed as linear form DNA bands at 10 to 40 uM upon 7.5 J/cm2 UV-A light irradiation by ethidium bromide staining based UV transillumination assay.
The subject of data set [18] is Escherichia coli. Kind of data set: Induction of Escherichia coli pBR322 DNA oxidative damage at 40 uM upon 7.5 J/cm2 UV-A light irradiation in presence of Fpg by ethidium bromide staining based electrophoresis.
In data set [19] the test system is Escherichia coli. Kind of data set: Induction of Escherichia coli pBR322 DNA oxidative damage at 40 uM upon 7.5 J/cm2 UV-A light irradiation in presence of endonuclease-3 by ethidium bromide staining based electrophoresis.
The subject of data set [20] is Jurkat. Kind of data set: Induction of lipid peroxidation in human Jurkat cells upon 2.5 J/cm2 UV light irradiation measured after 24 hrs by TBARS assay. In kind it is functional, cell-based.
The nature of data set [21]: Singlet oxygen sensitizing activity in aqueous acetonitrile solution irradiated with nanosecond laser flash photolysis assessed as lowest triplet-excited state by measuring long lived transient life time at 10^-4 M at 450 nanometer under argon saturated condition by spectroscopic method.
Data set [22] is described as follows: Induction of singlet oxygen photogeneration in aqueous acetonitrile solution of ADPA assessed as photobleaching of anthracene absorption upon 150 Watt mercury light irradiation at 400 nanometer measured up to 2 hrs.
In data set [23] the test system is MCF7. Kind of data set: Induction of ROS generation in human MCF7 cells at 400 nM preincubated for 30 mins followed by UV light irradiation measured after 2 hrs by H2DCFDA staining based fluorescence assay relative to control. In kind it is functional.
The test system of data set [24] is MCF7. Kind of data set: Induction of mitochondrial dysfunction in human MCF7 cells assessed as organelle fusion at 400 nM upon UV light irradiation measured after 6 hrs by mitotracker orange CMTM-ROS/LCS1 dye based confocal microscopic method. In kind it is functional, cell-based.
Data set [25] has as its system MCF7. The data set is described as follows: Induction of lysosomal activation in human MCF7 cells at 400 nM upon UV light irradiation measured up to 6 hrs by lysotracker green DND26 dye based confocal microscopic method. In kind it is functional, cell-based.

SMILES strings stand for the structures. Calls of active or inactive are those of the source. No cut-off for these calls is given here.

What is called EC50 is the concentration giving half of the maximal effect. Broadly, the CC50 is the concentration that lowers cell viability or growth by half. `CCOC(=O)c1cc2c(n1Cc1ccc(OC)cc1)-c1nc(OC)c(S(=O)(=O)c3ccccc3)cc1CCC2`: the values for the EC50 in the data set with MCF7 [1], in the data set with Jurkat [4] and in the data set on K562 [7] were 1.01 µM, 0.25 µM and 0.95 µM, respectively. The CC50 at 72 h in [2], in [5] and in data set [8] was above 20 µM in each case. Further, the entries for the “Ratio CC50/EC50” value in the data set on MCF7 [3], with Jurkat [6] and in the data set on K562 [9] were above 19.71, above 80 and above 21.05, respectively. For the same compound, the outcome with Jurkat [10], with Escherichia coli [15] and with Escherichia coli [17] was inactive. The result in the data set with Jurkat [11], with Jurkat [12], in the data set with Jurkat [13], in the data set on MCF7 [16], in the data set on Escherichia coli [18] and in the data set with Escherichia coli [19] was Active. Besides, the solubility result in data set [14] is listed as “Insoluble”. For the same compound, in the data set on Jurkat [20], the Activity result was “Dose-dependent effect”.
With `COc1cccc(Cn2ccc3c2-c2[nH]c(=O)c(S(=O)(=O)c4ccccc4)cc2CCC3)c1`, the EC50 with MCF7 [1] was 1.86 µM; with Jurkat [4], above 20 µM; in the data set on K562 [7], above 20 µM. Also, the CC50 at 72 h in data set [2], in [5] and in [8] was above 20 µM in each case. Also, the “Ratio CC50/EC50” value in the data set on MCF7 [3] is recorded as above 10.76. In [21], the Time is above 30 microsec. Further, in data set [22], the result was inactive.
The compound `CCCCCCCCCCCCCC(=O)O[C@@H]1[C@@H](C)[C@@]2(O)[C@@H](C=C(CO)C[C@]3(O)C(=O)C(C)=C[C@@H]23)[C@@H]2C(C)(C)[C@]12OC(C)=O` [PHORBOL MYRISTATE ACETATE] registered an Activity in the data set with MCF7 [23] of 120%. Moreover, the result with MCF7 [24] and in the data set with MCF7 [25] was Active.
`CCOC(=O)c1cc2c(n1Cc1ccccc1)-c1[nH]c(=O)c(S(=O)(=O)c3ccccc3)cc1CCC2`: the EC50 in the data set with MCF7 [1] turned out to be 1.41 µM; with Jurkat [4] it was 0.3 µM; in the data set with K562 [7] it was 0.4 µM. For the same compound, the CC50 at 72 h in data set [2], in data set [5] and in data set [8] was above 20 µM in each case. The figures for the “Ratio CC50/EC50” value in the data set on MCF7 [3], in the data set with Jurkat [6] and with K562 [9] were above 14.22, above 66.67 and above 50, respectively.
On to `CCOC(=O)c1cc2c(n1Cc1cccc(OC)c1)-c1[nH]c(=O)c(S(=O)(=O)c3ccccc3)cc1CCC2`, for which the EC50 in the data set with MCF7 [1] was 2.58 µM; in the data set with Jurkat [4], 0.24 µM; in the data set with K562 [7], 0.47 µM. Also, the CC50 at 72 h in [2], in data set [5] and in data set [8] was above 20 µM in each case. Also, the “Ratio CC50/EC50” value in the data set on MCF7 [3] is given as above 7.77; with Jurkat [6], above 83.33; in the data set on K562 [9], above 42.55.
On to `COc1ccccc1Cn1ccc2c1-c1[nH]c(=O)c(S(=O)(=O)c3ccccc3)cc1CCC2`, for which the values for the EC50 in the data set on MCF7 [1], in the data set with Jurkat [4] and in the data set with K562 [7] were 0.94 µM, 1.9 µM and 7.68 µM, respectively. Moreover, the CC50 at 72 h in data set [2], in [5] and in [8] was above 20 µM throughout. For the same compound, the “Ratio CC50/EC50” value is given as above 21.23 in the data set on MCF7 [3], above 10.53 with Jurkat [6] and above 2.6 in the data set on K562 [9].
